Measurements taken from publication PMC9820167, “Design and Synthesis of Conformationally Flexible Scaffold as Bitopic Ligands for Potent D3-Selective Antagonists” (International Journal of Molecular Sciences, 2022).
Where two headings read alike, the source gives them in different places.

How the values were obtained:
[1] = molecular target: Muscarinic M3 (Homo sapiens, UniProt P20309); assay: PDSP binding screen; conditions: for inhibition at 10 µM: read-out: Ki (nM) or % inhibition at 10 µM: M3
Muscarinic M3, sequence (P20309 whole entry): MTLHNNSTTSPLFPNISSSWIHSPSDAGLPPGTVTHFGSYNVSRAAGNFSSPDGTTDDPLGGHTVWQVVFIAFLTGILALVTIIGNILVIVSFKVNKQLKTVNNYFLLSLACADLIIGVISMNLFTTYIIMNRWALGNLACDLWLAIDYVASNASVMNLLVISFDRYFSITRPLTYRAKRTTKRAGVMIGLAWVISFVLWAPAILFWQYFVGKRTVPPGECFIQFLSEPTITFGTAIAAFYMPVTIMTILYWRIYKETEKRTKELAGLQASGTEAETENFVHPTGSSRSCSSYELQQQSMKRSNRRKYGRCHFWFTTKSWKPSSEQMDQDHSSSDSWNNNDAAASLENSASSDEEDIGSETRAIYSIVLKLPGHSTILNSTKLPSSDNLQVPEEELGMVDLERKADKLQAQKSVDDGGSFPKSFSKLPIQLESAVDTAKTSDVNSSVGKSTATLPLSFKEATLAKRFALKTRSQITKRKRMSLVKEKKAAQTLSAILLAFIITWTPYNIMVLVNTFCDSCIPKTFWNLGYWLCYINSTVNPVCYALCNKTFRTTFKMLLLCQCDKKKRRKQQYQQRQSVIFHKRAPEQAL

[2] = molecular target: T1, Muscarinic M4 (Homo sapiens, UniProt P08173); assay: PDSP binding screen; conditions: for inhibition at 10 µM: read-out: Ki (nM) or % inhibition at 10 µM: M4
T1 sequence (P08173 1-479): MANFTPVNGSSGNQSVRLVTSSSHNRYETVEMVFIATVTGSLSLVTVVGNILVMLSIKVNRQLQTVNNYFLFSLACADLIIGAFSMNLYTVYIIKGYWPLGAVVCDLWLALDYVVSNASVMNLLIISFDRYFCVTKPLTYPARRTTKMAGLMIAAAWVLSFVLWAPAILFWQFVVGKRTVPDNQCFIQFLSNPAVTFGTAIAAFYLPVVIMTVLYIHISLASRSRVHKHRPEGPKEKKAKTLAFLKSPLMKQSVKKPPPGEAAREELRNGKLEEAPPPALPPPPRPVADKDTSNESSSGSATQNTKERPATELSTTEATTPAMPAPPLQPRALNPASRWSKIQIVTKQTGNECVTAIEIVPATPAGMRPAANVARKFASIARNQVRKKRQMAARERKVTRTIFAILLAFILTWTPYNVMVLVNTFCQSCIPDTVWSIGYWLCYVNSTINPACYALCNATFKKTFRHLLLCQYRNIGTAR

[3] = molecular target: Serotonin 5-HT1B (Homo sapiens, UniProt P28222); assay: PDSP binding screen; conditions: for inhibition at 10 µM: read-out: Ki (nM) or % inhibition at 10 µM: 5-HT1B
Serotonin 5-HT1B, sequence (P28222 whole entry): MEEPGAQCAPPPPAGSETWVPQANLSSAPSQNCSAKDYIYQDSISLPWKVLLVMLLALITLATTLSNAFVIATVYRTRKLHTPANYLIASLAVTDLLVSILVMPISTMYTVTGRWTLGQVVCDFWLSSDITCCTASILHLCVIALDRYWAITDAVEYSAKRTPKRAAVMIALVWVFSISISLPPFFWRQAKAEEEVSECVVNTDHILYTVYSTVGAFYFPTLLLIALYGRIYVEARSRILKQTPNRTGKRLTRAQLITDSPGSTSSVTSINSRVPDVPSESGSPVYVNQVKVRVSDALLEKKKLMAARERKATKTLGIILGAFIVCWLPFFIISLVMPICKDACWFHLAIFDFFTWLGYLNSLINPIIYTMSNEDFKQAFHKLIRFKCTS

[4] = molecular target: T2, Opioid DOR (Homo sapiens, UniProt P41143); assay: PDSP binding screen; conditions: read-out: Ki (nM) or % inhibition at 10 µM: DOR
T2 construct: Psychoactive Drug Screening Program (PDSP)
T2 sequence (P41143 whole entry): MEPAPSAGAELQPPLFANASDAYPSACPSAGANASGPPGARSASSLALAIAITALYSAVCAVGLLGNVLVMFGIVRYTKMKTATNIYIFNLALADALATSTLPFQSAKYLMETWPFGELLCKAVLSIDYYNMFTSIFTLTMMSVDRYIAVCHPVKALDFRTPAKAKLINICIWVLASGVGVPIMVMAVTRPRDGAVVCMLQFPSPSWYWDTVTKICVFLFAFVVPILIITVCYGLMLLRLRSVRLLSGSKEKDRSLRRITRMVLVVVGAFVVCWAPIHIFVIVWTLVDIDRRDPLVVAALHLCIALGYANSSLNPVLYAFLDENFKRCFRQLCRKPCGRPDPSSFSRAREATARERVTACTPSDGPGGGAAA
Excerpt: (§1) Based on the results in the dopamine receptor radioligand binding assays, nine flexible-based compounds were selected for further evaluation for off-target binding with other GPCRs through the Psychoactive Drug Screening Program (PDSP) (Supplemental Table S2). […] For example, many of the N-aryl piperazine-based analogs that our group developed in the past for either the D2 or D3 receptor had high affinity for the 5-HT1A receptor [55, 56, 57, 58]. […] This mitochondrial-based protein is typically used as a target for imaging neuroinflammation. The results of the PDSP-binding assays also confirmed the data obtained in our lab for the binding of this panel of nine compounds to D2 and D3 receptors (Supplemental Table S2).

[5] = molecular target: T3, Serotonin transporter (SERT) (Homo sapiens, UniProt P31645); assay: PDSP binding screen; conditions: for Ki: PDSP, HCl salts; for inhibition at 10 µM: read-out: Ki (nM) or % inhibition at 10 µM: Serotonin transporter (SERT)
T3 construct: Psychoactive Drug Screening Program (PDSP)
T3 sequence (P31645 whole entry, species assumed): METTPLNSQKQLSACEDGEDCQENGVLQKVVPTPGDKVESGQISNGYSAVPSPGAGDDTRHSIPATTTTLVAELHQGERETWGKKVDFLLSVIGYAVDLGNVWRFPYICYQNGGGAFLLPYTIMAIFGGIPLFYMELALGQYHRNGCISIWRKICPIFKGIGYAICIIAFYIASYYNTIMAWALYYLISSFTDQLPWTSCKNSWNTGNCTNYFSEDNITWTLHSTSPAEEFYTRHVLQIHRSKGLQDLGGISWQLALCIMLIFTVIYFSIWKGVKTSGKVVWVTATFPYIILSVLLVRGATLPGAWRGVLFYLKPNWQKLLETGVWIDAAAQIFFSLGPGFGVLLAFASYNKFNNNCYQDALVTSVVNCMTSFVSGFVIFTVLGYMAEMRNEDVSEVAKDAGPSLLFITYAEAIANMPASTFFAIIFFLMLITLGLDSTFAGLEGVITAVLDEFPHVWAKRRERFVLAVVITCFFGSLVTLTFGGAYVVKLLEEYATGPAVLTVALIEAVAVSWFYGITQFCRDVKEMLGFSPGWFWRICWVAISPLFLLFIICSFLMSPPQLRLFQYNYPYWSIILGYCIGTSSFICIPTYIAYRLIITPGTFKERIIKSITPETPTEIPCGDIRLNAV
Excerpt: as §1

[6] = molecular target: T4, Serotonin 5-HT1E (Homo sapiens, UniProt P28566); assay: PDSP binding screen; conditions: read-out: Ki (nM) or % inhibition at 10 µM: 5-HT1E
T4 construct: Psychoactive Drug Screening Program (PDSP)
T4 sequence (P28566 whole entry): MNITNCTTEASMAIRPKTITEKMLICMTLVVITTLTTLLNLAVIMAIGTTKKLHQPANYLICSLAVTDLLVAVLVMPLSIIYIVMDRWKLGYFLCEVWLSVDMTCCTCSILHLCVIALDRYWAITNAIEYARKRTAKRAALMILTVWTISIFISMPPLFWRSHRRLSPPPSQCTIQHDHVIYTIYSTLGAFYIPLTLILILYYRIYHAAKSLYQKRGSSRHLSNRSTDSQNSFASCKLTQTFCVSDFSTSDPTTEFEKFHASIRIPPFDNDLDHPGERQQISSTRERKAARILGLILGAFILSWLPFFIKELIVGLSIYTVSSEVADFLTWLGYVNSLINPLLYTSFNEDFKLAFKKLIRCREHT
Excerpt: as §1

[7] = molecular target: T5, Serotonin 5-HT5A (Homo sapiens, UniProt P47898); assay: PDSP binding screen; conditions: read-out: Ki (nM) or % inhibition at 10 µM: 5-HT5A
T5 construct: Psychoactive Drug Screening Program (PDSP)
T5 sequence (P47898 whole entry): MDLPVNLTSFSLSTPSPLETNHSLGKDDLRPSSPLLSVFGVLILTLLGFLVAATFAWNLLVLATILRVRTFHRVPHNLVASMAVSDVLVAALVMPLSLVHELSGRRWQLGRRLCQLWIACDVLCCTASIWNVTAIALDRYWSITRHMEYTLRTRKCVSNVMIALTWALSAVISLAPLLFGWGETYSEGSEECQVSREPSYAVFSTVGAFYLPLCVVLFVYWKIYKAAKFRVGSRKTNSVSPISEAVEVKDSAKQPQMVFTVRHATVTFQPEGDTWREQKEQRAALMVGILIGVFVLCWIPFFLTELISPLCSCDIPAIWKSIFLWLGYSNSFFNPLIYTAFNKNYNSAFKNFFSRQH
Excerpt: as §1

[8] = molecular target: human D3 receptors (Homo sapiens, UniProt P35462); assay: Radioligand binding assay with [125I]IABN, D3 receptor; parameters: expressed in transfected cells; host or cells: HEK293; conditions: for Ki: D3 receptors expressed in HEK cells, mean ± SEM, three experiments, HCl salts; for D2/D3: selectivity ratio of Ki D2 / Ki D3 (fold)
human D3 receptors, sequence (P35462 whole entry): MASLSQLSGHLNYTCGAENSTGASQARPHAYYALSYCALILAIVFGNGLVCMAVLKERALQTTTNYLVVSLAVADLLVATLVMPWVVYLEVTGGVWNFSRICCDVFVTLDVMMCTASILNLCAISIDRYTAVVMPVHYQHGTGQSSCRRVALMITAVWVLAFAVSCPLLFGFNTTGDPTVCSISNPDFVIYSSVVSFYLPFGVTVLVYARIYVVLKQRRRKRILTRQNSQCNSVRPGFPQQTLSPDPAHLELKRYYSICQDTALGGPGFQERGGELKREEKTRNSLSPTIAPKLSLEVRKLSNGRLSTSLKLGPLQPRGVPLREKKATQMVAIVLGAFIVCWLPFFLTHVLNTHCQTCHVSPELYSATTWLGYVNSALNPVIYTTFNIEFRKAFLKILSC
Method: Two different assays were used to evaluate the properties of the analogs described above. The receptor binding affinity was measured by radioligand binding assays using [^125I]IABN with D2 or D3 receptors highly expressed HEK293 cells. The functional activity of the analogs was determined using a β-arrestin recruitment assay. The assay was initially conducted in agonist binding mode to confirm that they function as antagonists at the D3 receptor. Once this efficacy was confirmed, the assay was conducted in antagonist mode to determine the ability of the antagonist to compete with dopamine at the D3 receptor. The results of the antagonist mode assay are reported as IC50 values.
Ki values for D2 and D3 receptors were measured using [^125I]IABN in human D2 and D3 receptors expressed in HEK cells, respectively. A filtration binding assay was used to characterize membrane-associated receptor binding properties. The details for the procedures were described in the literature.

[9] = molecular target: T6, Serotonin 5-HT2C (Homo sapiens, UniProt P28335); assay: PDSP binding screen
T6 sequence (P28335 33-458): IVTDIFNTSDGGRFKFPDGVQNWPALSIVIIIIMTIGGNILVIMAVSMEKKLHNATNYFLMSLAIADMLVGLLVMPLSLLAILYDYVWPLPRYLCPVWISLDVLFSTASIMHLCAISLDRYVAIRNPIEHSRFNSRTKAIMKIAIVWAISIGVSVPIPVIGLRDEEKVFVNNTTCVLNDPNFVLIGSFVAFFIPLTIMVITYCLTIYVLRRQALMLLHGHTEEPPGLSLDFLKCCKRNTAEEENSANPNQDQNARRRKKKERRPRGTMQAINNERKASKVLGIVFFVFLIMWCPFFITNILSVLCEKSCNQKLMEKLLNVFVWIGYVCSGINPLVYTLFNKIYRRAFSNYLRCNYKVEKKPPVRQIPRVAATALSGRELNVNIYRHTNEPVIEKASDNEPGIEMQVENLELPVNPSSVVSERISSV

[10] = molecular target: Dopamine D1 (Homo sapiens, UniProt P21728); assay: PDSP binding screen; conditions: for inhibition at 10 µM: read-out: Ki (nM) or % inhibition at 10 µM: D1
Dopamine D1, sequence (P21728 whole entry): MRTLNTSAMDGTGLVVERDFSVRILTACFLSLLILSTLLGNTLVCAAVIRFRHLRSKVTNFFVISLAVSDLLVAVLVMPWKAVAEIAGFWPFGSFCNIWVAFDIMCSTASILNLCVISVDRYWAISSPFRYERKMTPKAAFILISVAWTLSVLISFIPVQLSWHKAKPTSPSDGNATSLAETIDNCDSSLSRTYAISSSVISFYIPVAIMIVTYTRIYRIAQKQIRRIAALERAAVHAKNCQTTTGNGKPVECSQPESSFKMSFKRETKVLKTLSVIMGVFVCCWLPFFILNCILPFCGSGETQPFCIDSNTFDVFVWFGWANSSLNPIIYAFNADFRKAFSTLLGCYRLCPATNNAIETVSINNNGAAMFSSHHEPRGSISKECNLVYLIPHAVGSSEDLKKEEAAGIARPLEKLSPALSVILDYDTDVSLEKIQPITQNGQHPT

[11] = molecular target: Serotonin 5-HT2B (Homo sapiens, UniProt P41595); assay: PDSP binding screen
Serotonin 5-HT2B, sequence (P41595 whole entry): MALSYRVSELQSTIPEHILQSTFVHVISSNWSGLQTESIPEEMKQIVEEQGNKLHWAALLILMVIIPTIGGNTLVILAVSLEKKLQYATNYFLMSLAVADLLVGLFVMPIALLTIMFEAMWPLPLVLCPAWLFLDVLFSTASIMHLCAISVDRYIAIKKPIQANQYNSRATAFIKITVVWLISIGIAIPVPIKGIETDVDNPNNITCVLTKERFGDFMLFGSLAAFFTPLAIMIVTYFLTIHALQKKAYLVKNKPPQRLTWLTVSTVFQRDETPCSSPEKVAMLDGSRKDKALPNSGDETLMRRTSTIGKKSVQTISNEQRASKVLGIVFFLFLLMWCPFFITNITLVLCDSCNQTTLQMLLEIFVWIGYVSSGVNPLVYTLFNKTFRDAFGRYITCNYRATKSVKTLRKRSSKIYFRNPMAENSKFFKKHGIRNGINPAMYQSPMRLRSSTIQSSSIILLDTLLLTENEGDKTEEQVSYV

[12] = molecular target: Histamine H4 (Homo sapiens, UniProt Q9H3N8); assay: PDSP binding screen; conditions: for inhibition at 10 µM: read-out: Ki (nM) or % inhibition at 10 µM: H4
Histamine H4, sequence (Q9H3N8 whole entry): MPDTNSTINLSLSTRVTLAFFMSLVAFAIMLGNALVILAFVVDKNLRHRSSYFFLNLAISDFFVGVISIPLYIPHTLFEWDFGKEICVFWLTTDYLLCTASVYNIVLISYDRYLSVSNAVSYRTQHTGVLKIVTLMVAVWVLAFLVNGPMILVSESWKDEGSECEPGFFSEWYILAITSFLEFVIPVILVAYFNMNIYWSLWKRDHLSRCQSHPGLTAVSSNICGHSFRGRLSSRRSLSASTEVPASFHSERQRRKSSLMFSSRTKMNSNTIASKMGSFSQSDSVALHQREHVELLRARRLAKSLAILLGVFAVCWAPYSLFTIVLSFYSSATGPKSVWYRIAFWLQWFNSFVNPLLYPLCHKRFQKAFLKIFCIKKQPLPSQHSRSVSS

[13] = molecular target: T7, Adrenergic alpha1A (Homo sapiens, UniProt P35348); assay: PDSP binding screen; conditions: for inhibition at 10 µM: read-out: Ki (nM) or % inhibition at 10 µM: alpha1A
T7 sequence (P35348 1-466): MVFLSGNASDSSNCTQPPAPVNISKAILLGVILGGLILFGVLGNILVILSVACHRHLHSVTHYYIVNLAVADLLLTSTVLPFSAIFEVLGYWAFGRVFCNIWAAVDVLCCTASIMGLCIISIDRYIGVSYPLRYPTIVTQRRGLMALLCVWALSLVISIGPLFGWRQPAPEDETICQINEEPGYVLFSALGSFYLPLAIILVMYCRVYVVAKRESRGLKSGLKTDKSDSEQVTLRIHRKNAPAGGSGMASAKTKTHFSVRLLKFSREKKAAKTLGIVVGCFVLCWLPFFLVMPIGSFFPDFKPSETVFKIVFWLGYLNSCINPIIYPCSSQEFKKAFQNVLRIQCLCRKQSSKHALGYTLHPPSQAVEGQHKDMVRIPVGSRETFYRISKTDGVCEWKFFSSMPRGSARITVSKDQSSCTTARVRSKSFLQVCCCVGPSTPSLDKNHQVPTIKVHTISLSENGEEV

[14] = [125I]IABN, read-out: Ki ± SEM (nM) D3

| Compound | inhibition at 10 µM [1] [%] | inhibition at 10 µM [2] [%] | Ki [3] [nM] | inhibition at 10 µM [4] [%] | Ki [5] [µM] | inhibition at 10 µM ([6]; PDSP, HCl salts) [%] | inhibition at 10 µM ([7]; PDSP, HCl salts) [%] | Ki [8, 14] [nM] | D2/D3 [8] | Ki [9] [nM] | Ki [10] [nM] | Ki [11] [nM] | Ki [2] [nM] | inhibition at 10 µM [5] [%] | inhibition at 10 µM [12] [%] | inhibition at 10 µM [3] [%] | inhibition at 10 µM [10] [%] | inhibition at 10 µM [13] [%] | other results |
| --- | --- | --- | --- | --- | --- | --- | --- | --- | --- | --- | --- | --- | --- | --- | --- | --- | --- | --- | --- |
| CCCN(CCCNC(=O)c1ccc(-c2cccs2)cc1)CCNC(=O)c1cc(Br)cc(OC)c1OC [20a, 5-Bromo-2,3-dimethoxy-N-(2-(propyl(3-(4-(thiophen-2-yl)benzamido)propyl)amino)ethyl)benzamide] | < 50 | < 50 | 1050 | < 50 | 5.85 | < 50 | < 50 | 2.7 ± 0.4 | 110 | 2020 | 4290 | 170 | – | – | – | – | – | – | Ki [12]: 3.46 µM; Ki [13]: 2210 nM |
| CCN(CCCNC(=O)c1ccc(-c2ccsc2)cc1)CCNC(=O)c1cc(Br)cc(OC)c1OC [21g, 5-Bromo-N-(2-(ethyl(3-(4-(thiophen-3-yl)benzamido)propyl)amino)ethyl)-2,3-dimethoxybenzamide] | < 50 | – | 1060 | < 50 | – | < 50 | < 50 | 2.5 ± 0.3 | 125 | 354 | 2010 | 189 | 1090 | < 50 | < 50 | – | – | – | Ki [13]: 2110 nM |
| CCN(CCCNC(=O)c1ccsc1)CCNC(=O)c1cc(Br)cc(OC)c1OC [21i, N-(3-((2-(5-Bromo-2,3-dimethoxybenzamido)ethyl)(ethyl)amino)propyl)thiophen-e-3-carboxamide] | < 50 | < 50 | – | – | – | < 50 | < 50 | 7 ± 0.5 | 43.4 | 9730 | – | 269 | – | < 50 | < 50 | < 50 | < 50 | < 50 | inhibition at 10 µM ([4]; PDSP, HCl salts): < 50% |
| CCN(CCCNC(=O)c1ccc(-c2cccs2)cc1)CCNC(=O)c1cc(Br)cc(OC)c1OC [9a, 5-Bromo-N-(2-(ethyl(3-(4-(thiophen-2-yl)benzamido)propyl)amino)ethyl)-2,3-dimethoxybenzamide] | – | – | 905 | < 50 | – | – | – | – | 169 | 577 | 2400 | 187 | 1600 | < 50 | – | – | – | < 50 | Ki [1]: 4.75 µM; inhibition at 10 µM [6]: < 50%; inhibition at 10 µM [7]: < 50%; Ki ([8]; Ki ± SEM (nM) D3, [125I]IABN): 1 ± 0.01 nM; Ki [12]: 6.42 µM |
| CCN(CCCNC(=O)c1ccc(-c2ccncc2)cc1)CCNC(=O)c1cc(Br)cc(OC)c1OC [21c, 5-Bromo-N-(2-(ethyl(3-(4-(pyridin-4-yl)benzamido)propyl)amino)ethyl)-2,3-dimethoxybenzamide] | < 50 | – | – | – | – | < 50 | < 50 | 1.1 ± 0.1 | 97.3 | 1500 | – | 157 | 930 | < 50 | < 50 | < 50 | < 50 | < 50 | inhibition at 10 µM ([4]; PDSP, HCl salts): < 50% |
| CCN(CCCNC(=O)c1cc2ccccc2[nH]1)CCNC(=O)c1cc(Br)cc(OC)c1OC [21d, N-(3-((2-(5-Bromo-2,3-dimethoxybenzamido)ethyl)(ethyl)amino)propyl)-1H-indole-2-carboxamide] | < 50 | < 50 | – | < 50 | – | < 50 | < 50 | 0.8 ± 0.2 | 180.5 | 2100 | – | 181 | – | < 50 | < 50 | < 50 | < 50 | < 50 | – |
| CCN(CCCNC(=O)c1cc2ccccc2n1C)CCNC(=O)c1cc(Br)cc(OC)c1OC [21j, N-(3-((2-(5-Bromo-2,3-dimethoxybenzamido)ethyl)(ethyl)amino)propyl)-1-methyl-1H-indole-2-carboxamide] | < 50 | < 50 | – | < 50 | 0.415 | < 50 | – | 3.1 ± 0.5 | 61.9 | 5060 | – | 183 | – | – | < 50 | < 50 | < 50 | < 50 | inhibition at 10 µM [7]: < 50% |
| CCN(CCCNC(=O)c1ccc2ccccc2c1)CCNC(=O)c1cc(Br)cc(OC)c1OC [21a, N-(3-((2-(5-Bromo-2,3-dimethoxybenzamido)ethyl)(ethyl)amino)propyl)-2-naphthamide] | – | < 50 | – | < 50 | 3.01 | < 50 | < 50 | 1.2 ± 0.2 | 141 | 1330 | – | 118 | – | – | < 50 | < 50 | < 50 | < 50 | Ki [1]: 1.26 µM |
